From patent US7320984B2, “Remedies or preventives for urinary frequency or urinary incontinence and morphinan derivatives having nitrogen-containing heterocyclic group” (Toray Industries, Inc., priority 2002, dated 2008) come the findings set out here.

The first assay relates to rhythmic bladder contractions in rats. As to the kind of experiment: Inhibitory effect against rhythmic bladder contractions in rats. As to conditions: anesthetized female SD rats, intravenous, dose 0.001 mg/kg body weight. The format is in vivo. The method, then: Inhibitory Effect Against Rhythmic Bladder Contractions in Rats
Female SD rats were anesthetized with an intraperitoneal administration of urethane (1.0 g/kg). A polyethylene tube was inserted from the urethra to the bladder and the tube was fixed by ligation. Then physiological saline was appropriately infused (infusion rate: about 0.2 ml/min., maximum: about 1.5 ml/animal) through the tube to cause rhythmic bladder contractions. The rhythmic bladder contractions were monitored by measuring the intravesical pressure through a polyethylene tube inserted into the bladder. After confirming that stable rhythmic bladder contractions occurred at least 10 times, a vehicle containing a prescribed dose of a test compound was intravenously administration at a dose of 1 ml/kg. In cases where the intravesical pressure, within 10 minutes after the administration of the test compound, decreased to 50% or less of the intravesical pressure immediately […] the administration, the test compound was judged as having inhibitory effect against urinary bladder contractions, and the time period until the intravesical pressure returned to more than 50% was defined as inhibitory time of rhythmic bladder contractions. As the vehicle for administration, physiological saline was used for test compounds 4, 7, 8, 9, 10, 13, 29, 30, 31, 33, 34, 75, 76, 79, 80, 81, 82, 84, 89, 90, 91, 93, 94, 95, 110 and 111, aqueous 10% dimethylsulfoxide (DMSO) solution was used for test compounds 11, 12, 14, 15, 16, 17, 18, 20, 21, 23, 28, 46, 47, 50, 55, 56, 57, 58, 59, 60, 61, 62, 63, 64, 65, 66, 68, 69, 70, 71, 72, 73, 74, 77, 78, 83, 85, 86, 87, 88, 92, 96, 97, 98, 99, 100, […], 103, 104, 105, 106, 107, 108 and […], aqueous 20% dimethylsulfoxide (DMSO) solution was used for test compounds 1, 2, 67 and 101, and aqueous 5% xylitol solution was used for test compounds 5 and 35. The aqueous 10% DMSO solution, aqueous 20% DMSO solution and the aqueous 5% xylitol solution per se, which may influence on the inhibitory time of rhythmic bladder contractions, were also tested at a dose of 1 ml/kg. With any of the compounds, prolongation of the inhibitory time of rhythmic bladder contractions was observed when compared with that obtained in the group to which the vehicle alone was administered.
Take `O=C1c2ccc(F)cc2C(=O)N1[C@H]1CC[C@@]2(O)[C@H]3Cc4ccc(O)c5c4[C@@]2(CCN3CC2CC2)[C@H]1O5` [Compound 68, N-(17-cyclopropylmethyl-4,5α-epoxy-3,14-dihydroxymorphinan-6α-yl)-4-fluorophthalimide]: the “Mean Inhibitory Time of Rhythmic Bladder Contractions” value (“Mean Inhibitory Time” for short) was found to be 18.0 min.

Staying with this assay, now noted: anesthetized female SD rats, intravenous, dose 0.005 mg/kg body weight.
As to `O=C1c2ccc(F)cc2C(=O)N1[C@@H]1CC[C@@]2(O)[C@H]3Cc4ccc(O)c5c4[C@@]2(CCN3CC2CC2)[C@H]1O5` [Compound 16, N-(17-cyclopropylmethyl-4,5α-epoxy-3,14-dihydroxy-morphinan-6β-yl)-4-fluorophthalimide], the “Mean Inhibitory Time” value is reported as 14.8 min.

Still in this assay, the particulars now being: anesthetized female SD rats, intravenous, dose 0.01 mg/kg body weight.
For `O=C1c2ccc(Cl)cc2C(=O)N1[C@@H]1CC[C@@]2(O)[C@H]3Cc4ccc(O)c5c4[C@@]2(CCN3CC2CC2)[C@H]1O5` [Compound 15, N-(17-cyclopropylmethyl-4,5α-epoxy-3,14-dihydroxy-morphinan-6β-yl)-4-chlorophthalimide], the “Mean Inhibitory Time” value worked out at 12.2 min.

As for `O=C1c2ccccc2S(=O)(=O)N1[C@@H]1CC[C@@]2(O)[C@H]3Cc4ccc(O)c5c4[C@@]2(CCN3CC2CC2)[C@H]1O5` [Compound 108, N-(17-cyclopropylmethyl-4,5α-epoxy-3,14-dihydroxy-morphinan-6β-yl)-O-sulfonebenzimide], the “Mean Inhibitory Time” value was 25.6 min.

Regarding `O=S1(=O)c2ccccc2S(=O)(=O)N1[C@@H]1CC[C@@]2(O)[C@H]3Cc4ccc(O)c5c4[C@@]2(CCN3CC2CC2)[C@H]1O5` [Compound 107, 2-(17-cyclopropylmethyl-4,5α-epoxy-3,14-dihydroxy-morphinan-6β-yl)-benzo[1,3,2]dithiazol-1,1,3,3-tetraoxide], the “Mean Inhibitory Time” value came to 14.1 min.

As for `Cc1cccc2c1C(=O)N([C@@H]1CC[C@@]3(O)[C@H]4Cc5ccc(O)c6c5[C@@]3(CCN4CC3CC3)[C@H]1O6)C2=O` [Compound 18, N-(17-cyclopropylmethyl-4,5α-epoxy-3,14-dihydroxy-morphinan-6β-yl)-3-methylphthalimide], the “Mean Inhibitory Time” value is 13.7 min.

Take `C=CCN1CC[C@]23c4c5ccc(O)c4O[C@H]2[C@H](N2C(=O)c4cccc(F)c4C2=O)CC[C@@]3(O)[C@H]1C5` [Compound 62, N-(17-allyl-4,5α-epoxy-3,14-dihydroxymorphinan-6β-yl)-3-fluorophthalimide]: the “Mean Inhibitory Time” value amounted to 15.3 min.

The assay is the same for the next values; noted with them: anesthetized female SD rats, intravenous, dose 0.03 mg/kg body weight.
In the case of `C=CCN1CC[C@]23c4c5ccc(O)c4O[C@H]2[C@H](N2C(=O)C4=C(CCCC4)C2=O)CC[C@@]3(O)[C@H]1C5` [Compound 73, N-(17-allyl-4,5α-epoxy-3,14-dihydroxymorphinan-6β-yl)-3,4,5,6-tetrahydrophthalimide], the “Mean Inhibitory Time” value was 13.4 min.

For `C=CCN1CC[C@]23c4c5ccc(O)c4O[C@H]2[C@H](N2C(=O)c4ccc(F)cc4C2=O)CC[C@@]3(O)[C@H]1C5` [Compound 58, N-(17-allyl-4,5α-epoxy-3,14-dihydroxymorphinan-6β-yl)-4-fluorophthalimide], the “Mean Inhibitory Time” value was 19.3 min.

Still in this assay, the particulars now being: anesthetized female SD rats, intravenous, dose 0.1 mg/kg body weight.
For `CN1CC[C@]23c4c5ccc(O)c4O[C@H]2[C@H](N2CCCc4ccccc42)CC[C@H]3[C@H]1C5` [Compound 1, 4,5α-epoxy-6β-tetrahydroquinolino-17-methyl-morphinan-3-ol], the “Mean Inhibitory Time” value turned out to be 11.7 min.

With `C=CCN1CC[C@]23c4c5ccc(O)c4O[C@H]2[C@H](N2Cc4c(F)cccc4C2=O)CC[C@@]3(O)[C@H]1C5` [Compound 89, 2-(17-allyl-4,5α-epoxy-3,14-dihydroxy-morphinan-6β-yl)-4-fluoro-2,3-dihydro-isoindol-1-one], the “Mean Inhibitory Time” value is recorded as 12.5 min.

Consider `C=CCN1CC[C@]23c4c5ccc(O)c4O[C@H]2[C@H](N2C(=O)c4cccc(N)c4C2=O)CC[C@@]3(O)[C@H]1C5` [Compound 100, N-(17-allyl-4,5α-epoxy-3,14-dihydroxy-morphinan-6β-yl)-3-amino-phthalimide], for which the “Mean Inhibitory Time” value came out at 14.0 min.

For `CC1=C(C)C(=O)N([C@@H]2CC[C@@]3(O)[C@H]4Cc5ccc(O)c6c5[C@@]3(CCN4CC3CC3)[C@H]2O6)C1=O` [Compound 75, N-(17-cyclopropylmethyl-4,5α-epoxy-3,14-dihydroxy-morphinan-6β-yl)-2,3-dimethyl-maleimide], the “Mean Inhibitory Time” value is reported as 20.2 min.

As for `COc1cccc2c1C(=O)N([C@@H]1CC[C@@]3(O)[C@H]4Cc5ccc(O)c6c5[C@@]3(CCN4CC3CC3)[C@H]1O6)C2=O` [Compound 102, N-(17-cyclopropylmethyl-4,5α-epoxy-3,14-dihydroxy-morphinan-6β-yl)-3-methoxy-phthalimide], the “Mean Inhibitory Time” value stood at 15.6 min.

Consider `O=C1/C(=C/c2ccccc2)CCN1[C@@H]1CC[C@@]2(O)[C@H]3Cc4ccc(O)c5c4[C@@]2(CCN3CC2CC2)[C@H]1O5` [Compound 50, 1-(17-cyclopropylmethyl-4,5α-epoxy-3,14-dihydroxy-morphinan-6β-yl)-3-benzylidene-pyrrolidin-2-one], for which the “Mean Inhibitory Time” value is 12.8 min.

`O=S1(=O)c2ccccc2CN1[C@@H]1CC[C@@]2(O)[C@H]3Cc4ccc(O)c5c4[C@@]2(CCN3CC2CC2)[C@H]1O5` [Compound 110, N-(17-cyclopropylmethyl-4,5α-epoxy-3,14-dihydroxy-morphinan-6β-yl)-2,3-dihydro-benzo[d]isothiazol-1,1-dioxide]: the “Mean Inhibitory Time” value amounted to 12.6 min.

As to `O=C1C(c2ccccc2)=C(c2ccccc2)C(=O)N1[C@@H]1CC[C@@]2(O)[C@H]3Cc4ccc(O)c5c4[C@@]2(CCN3CC2CC2)[C@H]1O5` [Compound 70, N-(17-cyclopropylmethyl-4,5α-epoxy-3,14-dihydroxymorphinan-6β-yl)-2,3-diphenylmaleimide], the “Mean Inhibitory Time” value is given as 8.9 min.

As to `C=CCN1CC[C@]23c4c5ccc(O)c4O[C@H]2[C@H](N2C(=O)c4ccc(C)cc4C2=O)CC[C@@]3(O)[C@H]1C5` [Compound 56, N-(17-allyl-4,5α-epoxy-3,14-dihydroxymorphinan-6β-yl)-4-methylphthalimide], the “Mean Inhibitory Time” value stood at 13.7 min.

On to `O=c1c2ccccc2[nH]n1[C@@H]1CC[C@@]2(O)[C@H]3Cc4ccc(O)c5c4[C@@]2(CCN3CC2CC2)[C@H]1O5` [Compound 103, 2-(17-cyclopropylmethyl-4,5α-epoxy-3,14-dihydroxy-morphinan-6β-yl)-1,2-dihydro-indazol-3-one], for which the “Mean Inhibitory Time” value is reported as 13.1 min.

The assay is the same for the next values; noted with them: anesthetized female SD rats, intravenous, dose 0.3 mg/kg body weight.
Regarding `CN1C(=O)CN([C@@H]2CC[C@@]3(O)[C@H]4Cc5ccc(O)c6c5[C@@]3(CCN4C)[C@H]2O6)c2ccccc21` [Compound 8, 4-(4,5α-epoxy-3,14-dihydroxy-17-methyl-morphinan-6β-yl)-1-methyl-3,4-dihydro-1H-quinoxalino-2-one], the “Mean Inhibitory Time” value was determined as 6.8 min.

`CN1CC[C@]23c4c5ccc(O)c4O[C@H]2[C@H](N2CCOCc4ccccc42)CC[C@H]3[C@H]1C5` [Compound 10, 4,5α-epoxy-6β-(1,2,3,5-tetrahydro-benzo[e][1,4]oxazepino)-17-methyl-morphinan-3-ol]: the “Mean Inhibitory Time” value stood at 7.8 min.

As to `O=C1c2ccccc2CN1[C@@H]1CC[C@@]2(O)[C@H]3Cc4ccc(O)c5c4[C@@]2(CCN3CC2CC2)[C@H]1O5` [Compound 28, 2-(17-cyclopropylmethyl-4,5α-epoxy-3,14-dihydroxy-morphinan-6β-yl)-2,3-dihydro-isoisoindol-1-one], the “Mean Inhibitory Time” value amounted to 19.6 min.

Still in this assay, the particulars now being: anesthetized female SD rats, intravenous, dose 1.0 mg/kg body weight.
As to `CCN(CC)C(=O)[C@@H]1CCCN1[C@@H]1CC[C@@]2(O)[C@H]3Cc4ccc(O)c5c4[C@@]2(CCN3C)[C@H]1O5` [Compound 29, 1-(4,5α-epoxy-3,14-dihydroxy-17-methyl-morphinan-6β-yl)-pyrrolidin-(2S)-carboxyl diethylamide], the “Mean Inhibitory Time” value turned out to be 0.8 min.

For `O=C1CCCN1[C@@H]1CC[C@@]2(O)[C@H]3Cc4ccc(O)c5c4[C@@]2(CCN3CC2CC2)[C@H]1O5` [Compound 46, 1-(17-cyclopropylmethyl-4,5α-epoxy-3,14-dihydroxy-morphinan-6β-yl)-pyrrolidin-2-one], the “Mean Inhibitory Time” value is on record as 20.0 min.
